{"source": "patent EP0535528A1", "about": "“Antibacterial 5-Nitro-1-methyl-imidazolyl-3-terbutyl-2-hydroxy-aryl-carbinols” (EURORESEARCH S.r.L., priority 1991, dated 1993)", "key": {"[1]": {"system": "Swiss female albino mice", "assay": "Oral and intraperitoneal acute toxicity in mice (LD50, Probits method)", "format": "in vivo", "conditions": "mice", "method": "20 Swiss female albino mice are used for this test of the average weight of 20 g (±2), coming from Nossan breeding .\nCages: in Makrolon® with saw dust litter, Number of animals per cage: 5 Acclimation period: 1 week Temperature: 22°C (± 2°C) Humidity : 60%, Diet: pellets for mice produced by Nossan firm, Water ad libitum Fast before the treatment: 16 hours\nOral by gastric route and intraperitoneal.\nThe substances to be studied: EU11100, EU11102, EU11103, EU11104 are treated with 0.5% carboxymethylcellulose in spring water, for the oral administration, whereas the same substances are intraperitoneally administered in the form of a physiological solution .\nFor each of the above mentioned substances, a mother suspension is prepared having a concentration in the active ingredient of 250 mg/ml for the oral administration, and analogously a mother suspension is prepared for the intraperitoneal administration having a concentration of the desired active principle of 100 mg/ml.\nThe following doses are used • a) oral route: 5000 mg/kg • b) intraperitoneal route : 2000 mg/kg\nIf mortality is observed at the above mentioned doses, other doses are administered in order to obtain a dose-response curve.\n5 animals are used for every utilized concentration.\nAfter the administration of the above substances the animals are kept under observation for 14 days , during which the mortality and the behaviour is observed.\nLD₅₀ is determined on the base of the cumulative mortality observed in the successive 14 days after the administration by using the Probits method."}, "[2]": {"system": "Helicobapter pylori", "assay": "Minimal inhibiting concentration (agar dilution)", "format": "cell-based", "method": "Substances under examination: EU11100, EU11102, EU11103, EU11104. Comparison substance: Metronidazole Solubilization of the substances: All the substances to be studied are dissolved at room temperature in DMSO. […] 10 strains of Helicobapter pylori are used of recent clinical isolation […] The sowing of the bacteria, prepared as described in the preceding test is carried out by means a \"multi-point inoculator\". After 48 hours incubation under the condition described in the preceding test, the plates are examined and the Minimal Inhibiting Concentration is evaluated, namely that dose corresponding to growth absence."}, "[3]": {"system": "Helicobapter pylori", "assay": "Inhibition halos of the bacterial growth (impregnated disks on agar)", "format": "cell-based", "conditions": "for activity against the Helicobapter pylori strains used: 10 strains; for Inhibition halo (mm), Average: average of 10 strains", "method": "Comparison substance: Metronidazole Solubilization of the substances : All the substances to be studied are dissolved at room temperature in DMSO.\nSome commercially available antibiogram disks are so impregnated with the above mentioned compounds that each disk has concentration equal to 10, 1, 0.1, 0.01 µg.\n10 strains of Helicobapter pylori are used of recent clinical isolation.\nColumbia Blood Agar Base is used, containing 5% of defibrinated horse blood, 2 % of calf serum, 2 vials of Vitox per liter of medium and Vancomicine (10 µg/ml) Trimetoprim lactate(5 µg/ml) and Polimixin B (2.5 U/ml).\n0.1 ml of a suspension of the different used strains are uniformly distributed onto Petri plates, containing 20 ml of Columbia Blood Agar base, obtained by taking a sample, by means of a platinum loop, of different colonies from a 48 hours culture, grown in anaerobiosis jars with \"Gas Pack\", without a catalyst and diluted into a physiological solution.\n4 disks per plate, previously impregnated with the substances under examination, are then placed onto the agar layer of each plate.\nAfter 48 hours of anaerobiosis incubation, as above described, the inhibition halos of the bacterial growth, produced by the different activity of the substances inside the agar, are evaluated."}}}
{"smiles": "Cc1cc(C(O)c2ncc([N+](=O)[O-])n2C)c(O)c(C(C)(C)C)c1", "note": "(stereo not shown) [EU11103, 5-nitro-1-methyl-imidazolyl-3-terbutyl-2-hydroxy-5 methyl-phenyl-carbinol]", "values": [{"measurement": "toxicity when intraperitoneally administered", "setting": "[1]; intraperitoneal, 2000 mg/kg", "result": "not toxic"}, {"measurement": "toxicity when orally administered", "setting": "[1]; oral, 5000 mg/kg", "result": "not toxic"}, {"measurement": "MIC50", "setting": "[2]; 10 strains", "result": 0.03, "unit": "mg/L"}, {"measurement": "MIC90", "setting": "[2]; 10 strains", "result": 0.06, "unit": "mg/L"}, {"measurement": "MIC range", "setting": "[2]; 10 strains", "result": "0.015 to 0.016", "unit": "mg/L"}, {"measurement": "MIC values", "setting": "[2]; in words, compared with Metronidazole", "result": "very low MIC values"}, {"measurement": "MIC", "setting": "[2]; strain 1", "result": 0.06, "unit": "mg/L"}, {"measurement": "MIC", "setting": "[2]; strain 2", "result": 0.06, "unit": "mg/L"}, {"measurement": "MIC", "setting": "[2]; strain 3", "result": 0.03, "unit": "mg/L"}, {"measurement": "MIC", "setting": "[2]; strain 4", "result": 0.03, "unit": "mg/L"}, {"measurement": "MIC", "setting": "[2]; strain 5", "result": 0.03, "unit": "mg/L"}, {"measurement": "MIC", "setting": "[2]; strain 6", "result": 0.03, "unit": "mg/L"}, {"measurement": "MIC", "setting": "[2]; strain 7", "result": 0.06, "unit": "mg/L"}, {"measurement": "MIC", "setting": "[2]; strain 8", "result": 0.06, "unit": "mg/L"}, {"measurement": "MIC", "setting": "[2]; strain 9", "result": 0.03, "unit": "mg/L"}, {"measurement": "MIC", "setting": "[2]; strain 10", "result": 0.015, "unit": "mg/L"}, {"measurement": "activity against the Helicobapter pylori strains used", "setting": "[3]; 0.1 µg/disk", "result": "active against 4 out of 10 strains"}, {"measurement": "activity against the Helicobapter pylori strains used", "setting": "[3]; 1 µg/disk", "result": "active against all the Helicobapter pylori used"}, {"measurement": "activity against the Helicobapter pylori strains used", "setting": "[3]; disk test", "result": "active against all the Helicobapter pylori strains used"}, {"measurement": "Inhibition halo (mm), Average", "setting": "[3]; 1 µg/disk", "result": 26.7, "unit": "mm"}, {"measurement": "Inhibition halo (mm), Average", "setting": "[3]; 10 µg/disk", "result": 36.6, "unit": "mm"}, {"measurement": "Inhibition halo (mm) at the concentration (µg/disk)", "setting": "[3]; strain 1, 0.01 µg/disk", "result": 0, "unit": "mm"}, {"measurement": "Inhibition halo (mm) at the concentration (µg/disk)", "setting": "[3]; strain 1, 1 µg/disk", "result": 30, "unit": "mm"}, {"measurement": "Inhibition halo (mm) at the concentration (µg/disk)", "setting": "[3]; strain 1, 10 µg/disk", "result": 40, "unit": "mm"}, {"measurement": "Inhibition halo (mm) at the concentration (µg/disk)", "setting": "[3]; strain 2, 0.01 µg/disk", "result": 0, "unit": "mm"}, {"measurement": "Inhibition halo (mm) at the concentration (µg/disk)", "setting": "[3]; strain 2, 0.1 µg/disk", "result": 0, "unit": "mm"}, {"measurement": "Inhibition halo (mm) at the concentration (µg/disk)", "setting": "[3]; strain 3, 0.01 µg/disk", "result": 0, "unit": "mm"}, {"measurement": "Inhibition halo (mm) at the concentration (µg/disk)", "setting": "[3]; strain 3, 0.1 µg/disk", "result": 0, "unit": "mm"}, {"measurement": "Inhibition halo (mm) at the concentration (µg/disk)", "setting": "[3]; strain 3, 1 µg/disk", "result": 24, "unit": "mm"}, {"measurement": "Inhibition halo (mm) at the concentration (µg/disk)", "setting": "[3]; strain 3, 10 µg/disk", "result": 35, "unit": "mm"}, {"measurement": "Inhibition halo (mm) at the concentration (µg/disk)", "setting": "[3]; strain 4, 0.01 µg/disk", "result": 0, "unit": "mm"}, {"measurement": "Inhibition halo (mm) at the concentration (µg/disk)", "setting": "[3]; strain 4, 0.1 µg/disk", "result": 20, "unit": "mm"}, {"measurement": "Inhibition halo (mm) at the concentration (µg/disk)", "setting": "[3]; strain 4, 10 µg/disk", "result": 44, "unit": "mm"}, {"measurement": "Inhibition halo (mm) at the concentration (µg/disk)", "setting": "[3]; strain 5, 0.01 µg/disk", "result": 0, "unit": "mm"}, {"measurement": "Inhibition halo (mm) at the concentration (µg/disk)", "setting": "[3]; strain 5, 0.1 µg/disk", "result": 0, "unit": "mm"}, {"measurement": "Inhibition halo (mm) at the concentration (µg/disk)", "setting": "[3]; strain 5, 1 µg/disk", "result": 17, "unit": "mm"}, {"measurement": "Inhibition halo (mm) at the concentration (µg/disk)", "setting": "[3]; strain 5, 10 µg/disk", "result": 22, "unit": "mm"}, {"measurement": "Inhibition halo (mm) at the concentration (µg/disk)", "setting": "[3]; strain 6, 0.01 µg/disk", "result": 0, "unit": "mm"}, {"measurement": "Inhibition halo (mm) at the concentration (µg/disk)", "setting": "[3]; strain 6, 1 µg/disk", "result": 32, "unit": "mm"}, {"measurement": "Inhibition halo (mm) at the concentration (µg/disk)", "setting": "[3]; strain 6, 10 µg/disk", "result": 43, "unit": "mm"}, {"measurement": "Inhibition halo (mm) at the concentration (µg/disk)", "setting": "[3]; strain 7, 0.01 µg/disk", "result": 0, "unit": "mm"}, {"measurement": "Inhibition halo (mm) at the concentration (µg/disk)", "setting": "[3]; strain 7, 0.1 µg/disk", "result": 0, "unit": "mm"}, {"measurement": "Inhibition halo (mm) at the concentration (µg/disk)", "setting": "[3]; strain 7, 1 µg/disk", "result": 20, "unit": "mm"}, {"measurement": "Inhibition halo (mm) at the concentration (µg/disk)", "setting": "[3]; strain 7, 10 µg/disk", "result": 28, "unit": "mm"}, {"measurement": "Inhibition halo (mm) at the concentration (µg/disk)", "setting": "[3]; strain 8, 0.01 µg/disk", "result": 0, "unit": "mm"}, {"measurement": "Inhibition halo (mm) at the concentration (µg/disk)", "setting": "[3]; strain 8, 0.1 µg/disk", "result": 21, "unit": "mm"}, {"measurement": "Inhibition halo (mm) at the concentration (µg/disk)", "setting": "[3]; strain 8, 1 µg/disk", "result": 37, "unit": "mm"}, {"measurement": "Inhibition halo (mm) at the concentration (µg/disk)", "setting": "[3]; strain 8, 10 µg/disk", "result": 45, "unit": "mm"}, {"measurement": "Inhibition halo (mm) at the concentration (µg/disk)", "setting": "[3]; strain 9, 0.01 µg/disk", "result": 0, "unit": "mm"}, {"measurement": "Inhibition halo (mm) at the concentration (µg/disk)", "setting": "[3]; strain 9, 0.1 µg/disk", "result": 0, "unit": "mm"}, {"measurement": "Inhibition halo (mm) at the concentration (µg/disk)", "setting": "[3]; strain 9, 1 µg/disk", "result": 22, "unit": "mm"}, {"measurement": "Inhibition halo (mm) at the concentration (µg/disk)", "setting": "[3]; strain 9, 10 µg/disk", "result": 33, "unit": "mm"}, {"measurement": "Inhibition halo (mm) at the concentration (µg/disk)", "setting": "[3]; strain 10, 0.01 µg/disk", "result": 0, "unit": "mm"}, {"measurement": "Inhibition halo (mm) at the concentration (µg/disk)", "setting": "[3]; strain 10, 0.1 µg/disk", "result": 0, "unit": "mm"}, {"measurement": "Inhibition halo (mm) at the concentration (µg/disk)", "setting": "[3]; strain 10, 1 µg/disk", "result": 24, "unit": "mm"}]}
